The text below walks through data of PubChem BioAssay AID743234 (The Scripps Research Institute Molecular Screening Center, 2013).

Calls of active or inactive are those of the source. How the calls were made is not given here.

Trace amine-associated receptor 1 (Homo sapiens), sequence (Q96RJ0 whole entry, looked up, the tested form may be a part): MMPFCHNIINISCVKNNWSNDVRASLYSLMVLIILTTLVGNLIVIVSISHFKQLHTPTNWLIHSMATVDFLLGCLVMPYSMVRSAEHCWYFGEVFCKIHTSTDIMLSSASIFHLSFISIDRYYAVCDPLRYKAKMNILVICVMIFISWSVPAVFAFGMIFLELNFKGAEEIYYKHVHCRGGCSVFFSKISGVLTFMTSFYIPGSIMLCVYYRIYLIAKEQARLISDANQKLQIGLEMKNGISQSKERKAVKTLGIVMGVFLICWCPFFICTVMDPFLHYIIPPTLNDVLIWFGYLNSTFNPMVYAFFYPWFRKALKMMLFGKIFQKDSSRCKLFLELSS

This experiment addresses Trace amine-associated receptor 1 (Homo sapiens) (UniProt Q96RJ0). The experiment in a line: blockers of human TAAR1 signalling – cell-based, fluorescence, late-stage follow-up (AID 743234). Particulars: TAAR1-expressing cells, fluorescence antagonist readout.
Regarding `COc1cccc(-c2nn(-c3ccccc3)cc2C(=O)Nc2nccs2)c1`, the IC50 (in general, the concentration at which inhibition is half-maximal) is “inactive”.
For the compound `COc1cc(NC(=O)c2cc3ccccc3o2)c(OC)cc1Cl`, the IC50 is > 29.9 µM (inactive).
In the case of `Cc1cccc(C(C#N)c2nc3ccccc3nc2C(F)(F)F)c1` (stereo not given), the half-maximal inhibitory concentration (IC50) is 1.73 µM.
Under `Cc1ccc(CSCC(=O)Nc2cc(S(=O)(=O)N3CCOCC3)ccc2OCC(F)(F)F)cc1` stands 1.6 µM; under `O=C(NCCn1cc(SCc2ccccc2F)c2ccccc21)c1c(F)cccc1F`, “inactive”.
